Paper PMC12238850, “Molecular determinants for recognition of serotonylated chromatin” (Nucleic Acids Research, 2025)
Like-named read-outs stand apart in the source and are kept apart here.

Target: T1, Taf3-PHD P881E–W894F (Mus musculus, UniProt Q5HZG4, P881E/W894F)
T1 construct: Mus musculus Taf3-PHD domain (residues 857–924); GST (N, cleaved yes); made in house; host or cells: E. coli BL21(DE3), M9 minimal medium (13C/15N)
T1 sequence (Q5HZG4 857-924 P881E/W894F): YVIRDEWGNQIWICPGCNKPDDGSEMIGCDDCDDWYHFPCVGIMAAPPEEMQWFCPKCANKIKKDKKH
Experiment: NMR titration line shape analysis (TITAN), double mutant Taf3-PHD
Assay type: binding
Method: The ^13C- and ^15N-labelled Taf3-PHD NMR samples were purified as described above, with minor differences. A single colony of freshly transformed BL21(DE3) E. coli was grown in a synthetic M9 minimal medium (6.0 g/l Na2HPO4·2H2O, 3.0 g/l KH2PO4, 0.5 g/l NaCl, 25 mg/l MgSO4, 290 μg/l CaCl2, 1 μg/l FeSO4·7H2O, 270 μg/l ZnCl2, and 5 mg/l thiamine) containing 2.0 g/l ^13C-glucose as the only carbon source and 0.5 g/l ^15NH4Cl as the sole nitrogen source. Protein expression, lysis, and loading to Glutathione Sepharose™ column were performed as described above. The GST-tag was removed through on-column thrombin digestion by loading excess thrombin (SERVA) in wash buffer followed by overnight digestion at 4°C. The cleaved PHD moiety with a […] N-terminal extension (Gly–Ser–His–Met–Ala–Met–Ala) remaining from the thrombin cleavage site was collected from the flow-through and further purified in a Mono Q™ 10/100 GL as before and subsequently loaded to a Superdex-75 HiLoad 16/600 gel filtration column in NMR buffer (20 mM KPi, pH 7.0, 150 mM KCl, 10 μM ZnCl2) (Supplementary Fig. S1).
All data were recorded at 298 K on a Bruker Avance III HD 900 MHz spectrometer equipped with a cryoprobe, unless noted otherwise. Sample for assignment verification contained 0.3 mM ^13C- and ^15N-labelled PHD finger of Taf3 (residues 857–924) in NMR buffer (20 mM KPi, pH 7.0, 150 mM KCl, 10 μM ZnCl2, 0.01% NaN3, 10% D2O) in a 5-mm NMR tube. Samples for peptide interaction studies contained 0.19 mM ^13C- and ^15N-labelled PHD in NMR buffer in 3-mm NMR tubes. Lyophilized peptides were dissolved in NMR buffer including 1 mM sodium 3-(trimethylsilyl)tetradeuteriopropanionate (TSP) into 20 mM stock solutions. Upon dilution to 1 mM, all peptide solutions were at pH 7.0 in NMR buffer. Peptide concentrations were determined by comparing the integral of the Thr methyl signal (from T3, T6, and T11, total nine protons) to that of TSP using a quantitative 1D experiment (recycle delay 60 s) recorded at a Bruker Avance III 600 MHz spectrometer. Saturated complexes with H3K4me1/H3K4me2/H3K4me3 peptides with and without H3Q5ser were made by adding peptide to a 0.7 mM final concentration (3.6 equiv.). […] Additional samples were prepared using 30%, 50%, 80%, and 160% equiv. of peptide. All spectra were recorded and processed using Bruker Topspin and analysed using NMR-FAM Sparky and Poky.
For the H3K4me2 complexes, the resonance of G879 was excluded due to overlap and that of K875 was included. Spectra were processed using NMRPipe using exponential line broadening of 10/15 Hz in the direct/indirect dimension of the free induction decay before Fourier transform. Data were fit against a 1:1 binding model that also optimizes the ligand concentration to compensate for concentration errors. […]

| koff (NMR line shape fit (TITAN), P881E–W894F mutant, average ± standard error from bootstrap, read-out: koff) [s⁻¹] | koff (NMR line shape fit (TITAN), P881E–W894F mutant, read-out: koff 95% confidence limits) [s⁻¹] | SMILES | koff [s⁻¹] | koff (read-out: koff 95% confidence limits) [s⁻¹] |
| --- | --- | --- | --- | --- |
|  |  | C[C@H](N)C(=O)N[C@@H](CCCNC(=N)N)C(=O)N[C@H](C(=O)N[C@@H](CCCC[N+](C)(C)C)C(=O)N[C@@H](CCC(=O)NCCc1c[nH]c2ccc(O)cc12)C(=O)N[C@H](C(=O)N[C@@H](C)C(=O)N[C@@H](CCCNC(=N)N)C(=O)N[C@@H](CCCCN)C(=O)N[C@@H](CO)C(=O)N[C@H](C(=O)NCC(N)=O)[C@@H](C)O)[C@@H](C)O)[C@@H](C)O [H3K4me3Q5ser] | 24.2 ± 0.9 | 18 to 33 |
| 29.6 ± 0.9 | 22 to 40 | C[C@H](N)C(=O)N[C@@H](CCCNC(=N)N)C(=O)N[C@H](C(=O)N[C@@H](CCCC[N+](C)(C)C)C(=O)N[C@@H](CCC(N)=O)C(=O)N[C@H](C(=O)N[C@@H](C)C(=O)N[C@@H](CCCNC(=N)N)C(=O)N[C@@H](CCCCN)C(=O)N[C@@H](CO)C(=O)N[C@H](C(=O)NCC(N)=O)[C@@H](C)O)[C@@H](C)O)[C@@H](C)O [H3K4me3] |  |  |
